Source: the supplement of paper PMC9334596

Test system: mPer2Luc MEF
Assay: PER2::LUC luminescence relative to vehicle control (fold of vehicle); higher = higher PER2::LUC reporter signal
Method: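 Secondary dose-response validation of 72 circadian-modulating compounds in mPer2Luc MEFs, threefold dilution series of six doses from 10 uM down to 0.04 uM. PER2::LUC luminescence read at 24 h and 30 h after treatment, normalised to vehicle (DMSO) control.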

[1] = time after treatment: 24-hour, concentration: 0.04μM
[2] = time after treatment: 24-hour, concentration: 0.37μM
[3] = time after treatment: 24-hour, concentration: 3.33μM
[4] = time after treatment: 24-hour, concentration: 10μM
[5] = time after treatment: 30-hour, concentration: 0.04μM
[6] = time after treatment: 30-hour, concentration: 0.37μM
[7] = time after treatment: 30-hour, concentration: 3.33μM
[8] = time after treatment: 30-hour, concentration: 10μM

| Compound | PER2::LUC luminescence [1] | PER2::LUC luminescence [2] | PER2::LUC luminescence [3] | PER2::LUC luminescence [4] | PER2::LUC luminescence [5] | PER2::LUC luminescence [6] | PER2::LUC luminescence [7] | PER2::LUC luminescence [8] |
| --- | --- | --- | --- | --- | --- | --- | --- | --- |
| C=CC(=O)Nc1cccc(Nc2nc(Nc3ccc(Oc4ccnc(C(=O)NC)c4)cc3)ncc2F)c1 [CNX-774] | 0.953 | 0.958 | 0.839 | 0.44 | 1.01 | 0.966 | 0.857 | 0.586 |
| COc1ccc(CCN2CCC(Nc3nc4ccccc4n3Cc3ccc(F)cc3)CC2)cc1 [Astemizole] | 0.895 | 0.815 | 0.543 | 0.026 | 0.783 | 0.79 | 0.67 | 0.009 |
| CC(C)c1cnn2c(NCc3ccccc3)cc(NCCCCCCN)nc12 [BS-181] | 1.05 | 0.946 | 0.807 | 0.33 | 0.972 | 0.943 | 0.934 | 0.422 |
| Cc1ccc([C@@H]2O[C@H](CO)[C@@H](O)[C@H](O)[C@H]2O)cc1Cc1ccc(-c2ccc(F)cc2)s1 [Canagliflozin] | 1.01 | 0.998 | 0.985 | 1.09 | 0.996 | 0.996 | 0.964 | 0.974 |
| Nc1nc(N)c2nc(-c3cccc(O)c3)cnc2n1 | 0.893 | 0.833 | 0.854 | 0.608 | 0.829 | 0.88 | 0.803 | 0.578 |
| O=C(Nc1cccc(Cl)c1)c1ccccn1 | 1.06 | 1.28 | 1.51 | 1.81 | 1.06 | 1.29 | 1.57 | 1.92 |
| COc1ccc(-c2nc3cc(F)ccc3s2)cc1OC | 1.36 | 1.39 | 1.36 | 1.36 | 1.66 | 1.69 | 1.67 | 1.58 |
| CCCCN(CCCC)C(=O)CN1C[C@H](c2ccc3c(c2)OCO3)[C@@H](C(=O)O)[C@@H]1c1ccc(OC)cc1 [ATRASENTAN] | 1.16 | 1.17 | 1.5 | 2.41 | 1.19 | 1.16 | 1.47 | 2.31 |
| Cc1cccc(/C=N/Nc2cc(N3CCOCC3)n3nc(-c4ccncc4)cc3n2)c1 [APY0201] | 0.206 | 0.187 | 0.151 | 0.04 | 0.16 | 0.145 | 0.117 | 0.038 |
| COc1cc(NC(=O)c2ccc(-c3ccc(Cl)cc3)o2)cc(OC)c1 | 0.886 | 0.894 | 0.888 | 0.875 | 0.83 | 0.878 | 0.95 | 0.864 |
| O=C(Nc1ccc(OC(F)(F)F)cc1)c1sccc1NCc1ccnc2ccccc12 [OSI-930] | 1.11 | 1.04 | 1.37 | 1.43 | 1.14 | 1.11 | 1.57 | 1.91 |
| O=c1sn(-c2cccc3ccccc23)c(=O)n1Cc1ccccc1 [Tideglusib] | 0.908 | 0.902 | 0.864 | 0.879 | 0.9 | 0.856 | 0.886 | 0.891 |
| CCOC(=O)N1c2ccc(C(F)(F)F)cc2[C@@H](N(Cc2cc(C(F)(F)F)cc(C(F)(F)F)c2)C(=O)OC)C[C@H]1CC | 0.989 | 0.984 | 0.939 | 0.99 | 0.935 | 0.917 | 0.959 | 0.943 |
| COc1ccc(C[C@H]2NC[C@H](O)[C@H]2OC(C)=O)cc1 [Anisomycin] | 0.056 | 0.032 | 0.002 | 0.001 | 0.06 | 0.05 | 0.001 | 0.001 |
| CN1CCN(c2nc3ccccc3nc2Cl)CC1 | 1 | 1.02 | 1.02 | 0.958 | 1.04 | 1.05 | 1.04 | 0.971 |
| C[C@H](NC(=O)/C(C#N)=C/c1cccc(Br)n1)c1ccccc1 [WP1066] | 1.1 | 1.03 | 1.14 | 0.142 | 1.02 | 1.02 | 0.891 | 0.13 |
| CCOC(=O)c1ccc(N(C)c2csc(-c3ccccc3)n2)cc1 [Neuropathiazol] | 0.939 | 1 | 1.04 | 1.1 | 0.913 | 0.937 | 1 | 1.08 |
| CCN1CCN(Cc2ccc(NC(=O)Nc3ccc(Oc4cc(NC)ncn4)cc3)cc2C(F)(F)F)CC1 [AST 487] | 0.843 | 0.869 | 0.792 | 0.031 | 0.918 | 0.891 | 0.951 | 0.023 |
| CCc1cc2c(cc1N1CCC(N3CCOCC3)CC1)C(C)(C)c1[nH]c3cc(C#N)ccc3c1C2=O | 0.92 | 0.909 | 0.957 | 0.902 | 0.817 | 0.859 | 0.859 | 0.83 |
| CN(C)C/C=C/C(=O)Nc1cc2c(Nc3ccc(F)c(Cl)c3)ncnc2cc1O[C@H]1CCOC1 [BIBW2992 DiMaleate] | 0.774 | 0.77 | 0.48 | 0.026 | 0.705 | 0.696 | 0.442 | 0.028 |
| Nc1ncnc2c1C(=O)N(c1ccc([C@H]3CC[C@H](CC(=O)O)CC3)cc1)CCO2 | 1.04 | 0.984 | 1 | 1 | 1.03 | 0.966 | 1.06 | 1.01 |
